Earlier results in PMC3099137 (Bioorganic & medicinal chemistry, 2011).

Tests used:
[1] = mice, attributed to in vivo defluorination
EGFR tyrosine kinase = details: read-out: IC50, inhibition of EGFR tyrosine kinase activity

bone uptake (in words) [1]	IC50 (EGFR tyrosine kinase) [nM]	Structure (SMILES)
high bone uptake	–	COc1cc2ncnc(Nc3ccc([18F])c(Cl)c3)c2cc1OC [4-(3-chloro-4-[^18F]fluoroanilino)-6,7-dimethoxy-quinazoline]
–	0.025	COc1cc2ncnc(Nc3cccc(Br)c3)c2cc1OC [PD153035, 6,7-dimethoxy-4-(3-bromoanilino)quinazoline]
–	0.006	CCOc1cc2ncnc(Nc3cccc(Br)c3)c2cc1OCC [diethoxy- derivative]
